Assay results as given in DBAASP.
Values after ≈ are worked out from the molar mass of the structure shown. Values joined by “and” are separate entries in the source; they are usually repeats but may differ in a detail not shown here. Equal entries are not always repeated.

Assays:
Test in all cases: ≥ marks a high value that may be exact or a test limit, other limits are often not marked, values filed in µg/mL are converted to µM
Candida albicans SC5314 = tested on: Candida albicans SC5314
Candida albicans = tested on: Candida albicans
[1] = tested on: Candida glabrata ATCC 15126
Candida glabrata = tested on: Candida glabrata
Candida krusei ATCC 6258 = tested on: Candida krusei ATCC 6258
[2] = tested on: Candida parapsilosis ATCC 22019
Candida parapsilosis = tested on: Candida parapsilosis
[3] = tested on: Candida tropicalis ATCC 13803
Candida tropicalis = tested on: Candida tropicalis
Candida glabrata 090902 = tested on: Candida glabrata 090902
[4] = tested on: Enterococcus faecalis 981
[5] = tested on: Escherichia coli ATCC 25922
[6] = tested on: Klebsiella pneumoniae 08040724
[7] = tested on: Nocardia asteroides 201118
[8] = tested on: Pseudomonas aeruginosa CGMCC 1.50
[9] = tested on: Staphylococcus aureus ATCC 25923
[10] = tested on: Streptococcus mutans UA159
[11] = tested on: Streptococcus sanguinis ATCC 10556
[12] = tested on: Streptococcus sobrinus ATCC 6715
Aeromonas sobria = tested on: Aeromonas sobria
[13] = tested on: Bacillus cereus ATCC 10876
[14] = tested on: Cutibacterium acnes ATCC 11827
[15] = tested on: Enterococcus faecalis ATCC 29212
[16] = tested on: Enterococcus faecium 091299
Escherichia coli 091335 = tested on: Escherichia coli 091335
Klebsiella oxytoca = tested on: Klebsiella oxytoca
Klebsiella pneumoniae = tested on: Klebsiella pneumoniae
Nocardia asteroides = tested on: Nocardia asteroides
Proteus mirabilis = tested on: Proteus mirabilis
Proteus vulgaris = tested on: Proteus vulgaris
[17] = tested on: Pseudomonas aeruginosa 091411
[18] = tested on: Pseudomonas aeruginosa 091412
[19] = tested on: Staphylococcus aureus ATCC 2592
[20] = tested on: Staphylococcus aureus ATCC 6538
Staphylococcus aureus = tested on: Staphylococcus aureus
[21] = tested on: Staphylococcus haemolyticus
[22] = tested on: Stenotrophomonas maltophilia
[23] = tested on: Streptococcus agalactiae ATCC 27956
[24] = tested on: Streptococcus dysgalactiae subsp. dysgalactiae ATCC 27957
[25] = tested on: Streptococcus equi subsp. zooepidemicus ATCC 43079

## CC(C)C[C@H](NC(=O)[C@H](CC(C)C)NC(=O)[C@H](Cc1ccc(O)cc1)NC(=O)[C@H](CCCCN)NC(=O)[C@@H](N)CS)C(=O)N[C@@H](CCCCN)C(=O)N[C@@H](Cc1c[nH]c2ccccc12)C(=O)N[C@@H](CCCN=C(N)N)C(=O)O [CKYLLKWR]
Candida albicans SC5314
  MIC: 22.5 µM (≈ 25 µg/mL)
Candida albicans
  MIC: 63.7 µM (≈ 70.7 µg/mL)
[1]
  MIC: 22.5 µM (≈ 25 µg/mL)
Candida glabrata
  MIC: ≥ 45.1 µM
Candida krusei ATCC 6258
  MIC: 22.5 µM (≈ 25 µg/mL)
[2]
  MIC: ≥ 45.1 µM
Candida parapsilosis
  MIC: 31.9 µM (≈ 35.4 µg/mL)
[3]
  MIC: 11.3 µM (≈ 12.5 µg/mL)
Candida tropicalis
  MIC: 11.3 µM (≈ 12.5 µg/mL)

## CC[C@H](C)[C@H](NC(=O)[C@H](C)NC(=O)[C@@H]1CCCN1C(=O)[C@H](CC(C)C)NC(=O)[C@@H](N)Cc1ccccc1)C(=O)N[C@H](C(=O)NCC(=O)N[C@@H](CCSC)C(=O)N[C@@H](C)C(=O)N[C@@H](C)C(=O)N[C@@H](CCCCN)C(=O)N[C@H](C(=O)N[C@@H](CC(C)C)C(=O)N1CCC[C@H]1C(=O)N[C@@H](C)C(=O)N[C@@H](Cc1ccccc1)C(=O)N[C@@H](CC(C)C)C(=O)N[C@H]1CSSC[C@@H](C(=O)O)NC(=O)[C@H](CCCCN)NC(=O)[C@H](CCCCN)NC(=O)[C@H]([C@@H](C)O)NC(=O)[C@H]([C@@H](C)CC)NC(=O)[C@H](CCCCN)NC1=O)C(C)C)[C@@H](C)CC [FLPAIIGMAAKVLPAFLCKITKKC]
Candida glabrata 090902
  MIC: ≥ 37.5 µM
[4]
  MIC: 9.4 µM (≈ 24.2 µg/mL)
[5]
  MIC: 37.5 µM (≈ 96.6 µg/mL)
[6]
  MIC: ≥ 75 µM
[7]
  MIC: 1.2 µM (≈ 3.09 µg/mL)
[8]
  MIC: ≥ 75 µM
[9]
  MIC: 4.7 µM (≈ 12.1 µg/mL)

## CC(C)[C@H](NC(=O)[C@H](CCCCN)NC(=O)[C@H](CCCCN)NC(=O)[C@H](C)NC(=O)[C@H](CCCCN)NC(=O)[C@H](CCCCN)NC(=O)[C@H](Cc1ccccc1)NC(=O)[C@H](Cc1ccccc1)NC(=O)[C@H](CCCCN)NC(=O)[C@H](CCCCN)NC(=O)[C@H](Cc1c[nH]c2ccccc12)NC(=O)CN)C(=O)N[C@@H](Cc1c[nH]c2ccccc12)C(=O)N[C@@H](CCCCN)C(=O)O [GWKKFFKKAKKVWK]
[10]
  MIC: ≥ 70.7 µM
[11]
  MIC: ≥ 141 µM
[12]
  MIC: ≥ 141 µM

## CC[C@H](C)[C@H](NC(=O)[C@H](CCSC)NC(=O)[C@H](CC(C)C)NC(=O)[C@H](Cc1ccccc1)NC(=O)[C@H](CCC(N)=O)NC(=O)[C@H](Cc1ccc(O)cc1)NC(=O)[C@H](CCCN=C(N)N)NC(=O)[C@@H](NC(=O)[C@@H](NC(=O)[C@@H](NC(=O)[C@H](CO)NC(=O)CNC(=O)[C@H](CCCN=C(N)N)NC(=O)[C@H](CCCN=C(N)N)NC(=O)[C@@H](N)CCCCN)C(C)C)[C@@H](C)O)[C@@H](C)O)C(=O)N[C@@H](Cc1cnc[nH]1)C(=O)N[C@@H](CC(C)C)C(=O)N[C@@H](CC(C)C)C(=O)N[C@@H](CCCN=C(N)N)C(=O)N1CCC[C@H]1C(=O)N[C@@H](CCCCN)C(=O)N[C@@H](CCCCN)C(=O)N[C@@H](CC(C)C)C(=O)N[C@@H](Cc1ccccc1)C(=O)N[C@@H](C)C(=O)O [KRRGSVTTRYQFLMIHLLRPKKLFA]
Aeromonas sobria
  MIC: 3.07 µM (≈ 9.4 µg/mL)
[13]
  MIC: 13.1 µM (≈ 40.1 µg/mL)
Candida albicans
  MIC: 3.07 µM (≈ 9.4 µg/mL)
Candida glabrata 090902
  MIC: ≥ 32.7 µM
Candida tropicalis
  MIC: ≥ 32.7 µM
[14]
  MIC: 1.54 µM (≈ 4.7 µg/mL)
[15]
  MIC: 9.8 µM (≈ 30 µg/mL)
[16]
  MIC: 3.07 µM (≈ 9.4 µg/mL)
Escherichia coli 091335
  MIC: 24.5 µM (≈ 75 µg/mL)
[5]
  MIC: 2.9 µM (≈ 8.88 µg/mL)
Klebsiella oxytoca
  MIC: ≥ 32.7 µM
Klebsiella pneumoniae
  MIC: > 32.7 µM
Nocardia asteroides
  MIC: 0.392 µM (≈ 1.2 µg/mL)
Proteus mirabilis
  MIC: ≥ 32.7 µM
Proteus vulgaris
  MIC: ≥ 32.7 µM
[17]
  MIC: 6.14 µM (≈ 18.8 µg/mL)
[18]
  MIC: ≥ 32.7 µM
[19]
  MIC: 0.196 µM (≈ 0.6 µg/mL)
[20]
  MIC: 13.4 µM (≈ 41 µg/mL)
Staphylococcus aureus
  MIC: 0.392 µM and > 0.196 µM
[21]
  MIC: 0.196 µM (≈ 0.6 µg/mL)
[22]
  MIC: 3.07 µM (≈ 9.4 µg/mL)
[23]
  MIC: 13.1 µM (≈ 40.1 µg/mL)
[24]
  MIC: 13.1 µM (≈ 40.1 µg/mL)
[25]
  MIC: 13.1 µM (≈ 40.1 µg/mL)
